In PubChem BioAssay (NCI):
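1) Cells in 96-well plates. 2) Compound, 48 h, 5 concentrations. 3) Linear interpolation between surrounding doses. 4) Unreached endpoint = highest concentration. The concentration for 50% growth inhibition is given as GI50. TGI: total growth inhibition.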

How the values were obtained:
Assay in all cases: NCI anticancer screen, dose series, 48 h
SK-MEL-5 melanoma = system: SK-MEL-5 melanoma
COLO 205 colon = system: COLO 205 colon
MOLT-4 leukemia = system: MOLT-4 leukemia
IGROV1 ovarian = system: IGROV1 ovarian
NCI-H522 lung = system: NCI-H522 lung
UO-31 renal = system: UO-31 renal
K-562 leukemia = system: K-562 leukemia
MDA-MB-231 breast = system: MDA-MB-231 breast
SW-620 colon = system: SW-620 colon
786-0 renal = system: 786-0 renal
SK-MEL-2 melanoma = system: SK-MEL-2 melanoma
OVCAR-4 ovarian = system: OVCAR-4 ovarian
KM12 colon = system: KM12 colon
UACC-62 melanoma = system: UACC-62 melanoma
NCI-H23 lung = system: NCI-H23 lung
CAKI-1 renal = system: CAKI-1 renal
CCRF-CEM leukemia = system: CCRF-CEM leukemia
T-47D breast = system: T-47D breast
PC-3 prostate = system: PC-3 prostate
DU-145 prostate = system: DU-145 prostate
LOX IMVI melanoma = system: LOX IMVI melanoma
SF-539 CNS = system: SF-539 CNS
RPMI-8226 leukemia = system: RPMI-8226 leukemia
RXF 393 renal = system: RXF 393 renal
U251 CNS = system: U251 CNS
HCC-2998 colon = system: HCC-2998 colon
HCT-15 colon = system: HCT-15 colon
ACHN renal = system: ACHN renal
OVCAR-8 ovarian = system: OVCAR-8 ovarian

In the case of `Cc1ccccc1NC(=O)c1sc2nc(C)c(C(=O)/C=C/c3ccccc3)cc2c1N`, the TGI (SK-MEL-5 melanoma) was 2710 nM, the GI50 (COLO 205 colon) was 1650 nM and the TGI (COLO 205 colon) was 5270 nM. For the same compound, the GI50 (MOLT-4 leukemia) was 1570 nM, the TGI (MOLT-4 leukemia) was > 50000 nM and the GI50 (IGROV1 ovarian) was 953 nM. The TGI (IGROV1 ovarian) was 2080 nM, the GI50 (NCI-H522 lung) was 1150 nM and the TGI (NCI-H522 lung) was 3420 nM. It also gave a GI50 (UO-31 renal) of 814 nM, a TGI (UO-31 renal) of 1530 nM and a GI50 (K-562 leukemia) of 731 nM. The TGI (K-562 leukemia) was > 50000 nM, the GI50 (MDA-MB-231 breast) was 1800 nM and the TGI (MDA-MB-231 breast) was 11000 nM. It also gave a GI50 (SW-620 colon) of 1000 nM, a TGI (SW-620 colon) of 2450 nM and a GI50 (786-0 renal) of 820 nM. It also gave a TGI (786-0 renal) of 1770 nM, a GI50 (SK-MEL-2 melanoma) of 1810 nM and a TGI (SK-MEL-2 melanoma) of 8590 nM. The GI50 (OVCAR-4 ovarian) was 1420 nM, the TGI (OVCAR-4 ovarian) was > 50000 nM and the GI50 (KM12 colon) was 901 nM. The TGI (KM12 colon) was 2020 nM, the GI50 (UACC-62 melanoma) was 900 nM and the TGI (UACC-62 melanoma) was 2040 nM. The GI50 (NCI-H23 lung) was 1210 nM, the TGI (NCI-H23 lung) was 3160 nM and the GI50 (CAKI-1 renal) was 1080 nM. The TGI (CAKI-1 renal) was 2680 nM, the GI50 (CCRF-CEM leukemia) was 1500 nM and the TGI (CCRF-CEM leukemia) was > 50000 nM. It also gave a GI50 (T-47D breast) of 975 nM, a TGI (T-47D breast) of 2340 nM and a GI50 (PC-3 prostate) of 1330 nM. The TGI (PC-3 prostate) was 3770 nM, the GI50 (DU-145 prostate) was 1340 nM and the TGI (DU-145 prostate) was 4280 nM. For the same compound, the GI50 (LOX IMVI melanoma) was 864 nM, the TGI (LOX IMVI melanoma) was 1620 nM and the GI50 (SF-539 CNS) was 977 nM. It also gave a TGI (SF-539 CNS) of 1960 nM, a GI50 (RPMI-8226 leukemia) of 1200 nM and a TGI (RPMI-8226 leukemia) of 3480 nM. It also gave a GI50 (RXF 393 renal) of 821 nM, a TGI (RXF 393 renal) of 1600 nM and a GI50 (U251 CNS) of 951 nM. It also gave a TGI (U251 CNS) of 1990 nM, a GI50 (HCC-2998 colon) of 913 nM and a TGI (HCC-2998 colon) of 1670 nM. For the same compound, the GI50 (HCT-15 colon) was 836 nM, the TGI (HCT-15 colon) was 1940 nM and the GI50 (ACHN renal) was 927 nM. The TGI (ACHN renal) was 1860 nM, the GI50 (OVCAR-8 ovarian) was 1600 nM and the TGI (OVCAR-8 ovarian) was > 50000 nM.
